Laboratory results published in article PMC7534383, “Structure-activity relationship of 7-aryl-2-anilino-pyrrolopyrimidines as Mer and Axl tyrosine kinase inhibitors” (Journal of Enzyme Inhibition and Medicinal Chemistry, 2020).
“Also recorded” adds a separate entry of the source.

Experiments:
Mer = conditions: Figure 1, known TAM kinase inhibitors; cited from earlier work
TYRO3 [1] = target: T1, TYRO3 (Homo sapiens, UniProt Q06418); conditions: Figure 1, known TAM kinase inhibitors; cited from earlier work
T1 sequence (Q06418 41-890): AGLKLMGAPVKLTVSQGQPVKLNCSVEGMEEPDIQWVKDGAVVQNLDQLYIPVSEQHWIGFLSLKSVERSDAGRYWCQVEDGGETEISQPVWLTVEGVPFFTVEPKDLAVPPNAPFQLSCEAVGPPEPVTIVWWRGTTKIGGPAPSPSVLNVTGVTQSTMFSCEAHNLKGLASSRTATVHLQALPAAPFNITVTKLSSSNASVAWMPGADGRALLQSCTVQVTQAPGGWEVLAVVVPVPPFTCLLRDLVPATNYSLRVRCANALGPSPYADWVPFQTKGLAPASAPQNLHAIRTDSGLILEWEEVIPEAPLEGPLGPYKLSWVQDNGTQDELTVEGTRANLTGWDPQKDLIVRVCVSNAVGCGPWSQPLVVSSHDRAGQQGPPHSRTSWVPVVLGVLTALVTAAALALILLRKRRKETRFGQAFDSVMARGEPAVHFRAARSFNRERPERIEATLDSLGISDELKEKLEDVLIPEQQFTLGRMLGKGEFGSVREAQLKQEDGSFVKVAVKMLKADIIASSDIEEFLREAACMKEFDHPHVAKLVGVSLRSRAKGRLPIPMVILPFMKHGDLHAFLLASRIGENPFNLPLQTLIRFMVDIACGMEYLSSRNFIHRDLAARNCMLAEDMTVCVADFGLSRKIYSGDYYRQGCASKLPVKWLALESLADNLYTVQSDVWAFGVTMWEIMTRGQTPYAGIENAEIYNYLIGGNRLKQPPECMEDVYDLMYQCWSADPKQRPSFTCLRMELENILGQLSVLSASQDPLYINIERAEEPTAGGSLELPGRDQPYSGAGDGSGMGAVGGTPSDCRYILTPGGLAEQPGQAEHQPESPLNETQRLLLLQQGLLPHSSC

AXL = target: T2, AXL (Homo sapiens, UniProt P30530); assay: Kinase assay at Km ATP (Eurofins Discovery), Axl; type: biochemical; conditions: Table 2; Km ATP
T2 sequence (P30530 26-894): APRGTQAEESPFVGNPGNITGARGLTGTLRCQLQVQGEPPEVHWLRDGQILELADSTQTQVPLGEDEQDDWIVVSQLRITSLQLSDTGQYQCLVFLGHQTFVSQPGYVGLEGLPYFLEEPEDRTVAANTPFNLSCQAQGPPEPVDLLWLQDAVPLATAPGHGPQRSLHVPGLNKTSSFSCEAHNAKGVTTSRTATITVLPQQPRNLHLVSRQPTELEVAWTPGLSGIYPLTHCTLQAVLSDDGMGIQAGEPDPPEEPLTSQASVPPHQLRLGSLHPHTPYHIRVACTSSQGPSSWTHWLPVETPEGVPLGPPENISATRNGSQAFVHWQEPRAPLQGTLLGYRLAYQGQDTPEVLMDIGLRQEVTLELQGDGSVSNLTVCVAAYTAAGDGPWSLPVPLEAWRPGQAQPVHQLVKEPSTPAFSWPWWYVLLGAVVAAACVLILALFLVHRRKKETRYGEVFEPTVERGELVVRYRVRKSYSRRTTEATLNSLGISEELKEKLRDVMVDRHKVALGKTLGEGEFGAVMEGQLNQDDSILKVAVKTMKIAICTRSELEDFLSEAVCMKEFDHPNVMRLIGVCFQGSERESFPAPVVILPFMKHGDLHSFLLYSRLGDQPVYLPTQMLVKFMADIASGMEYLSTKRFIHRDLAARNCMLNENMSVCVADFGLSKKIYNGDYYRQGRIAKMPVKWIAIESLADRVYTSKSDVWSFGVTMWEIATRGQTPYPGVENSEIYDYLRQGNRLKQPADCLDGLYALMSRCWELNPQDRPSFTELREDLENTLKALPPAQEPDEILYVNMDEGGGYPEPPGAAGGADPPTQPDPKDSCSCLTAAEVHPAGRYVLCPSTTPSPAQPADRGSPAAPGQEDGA
Protocol: (§1) All kinase assays were carried out at Km ATP by Eurofins Discovery's Kinase Screening and Profiling services (France).

[2] = tested on: Mer phosphorylation in Mer-overexpressed human gastric cancer cell line MKN28; assay: Western blot of Mer phosphorylation in MKN28 cells; type: cell-based; conditions: 0.5 and 0.1 μM, 1.5 h, UNC2025 positive control
Protocol: MKN28 cells were obtained from the Korea Institute of Science and Technology (KIST). Cells were cultured in Roswell Park Memorial Institute (RPMI) 1640 medium containing 10% fetal bovine serum and 1% penicillin/streptomycin at 37 °C with 5% CO2 under a humidified atmosphere.
MKN 28 cells (500,000 cells/2 ml) were seeded in each well of 6-well plates and incubated for 24 h. Then, the cells were treated with 20 µL of DMSO stock solution of the corresponding compounds and incubated for a further 1.5 h. After that, the cells were washed with cold Dulbecco's Phosphate-Buffered Saline (DPBS) twice and lysed with RIPA buffer supplemented with protease inhibitor and phosphatase inhibitor cocktails on ice. Equal amounts of protein samples were boiled with 5× SDS-PAGE loading buffer and separated by 10% SDS-PAGE gels, then transferred onto polyvinylidene difluoride (PVDF) membranes. The membranes were blocked with 5% BSA in 1× TBST (1× TBS with 0.1% Tween-20) for 1 h and incubated at 4 °C overnight with a 1:1000 dilution of the following primary antibodies in blocking buffer: pMer (Tyr749 + 753 + 754, ab14921), Mer (CST, # 4319), and ß-actin (SC, # SC-47778). […]
Figure 3. […] Bar graph represents the relative intensities of the total and phosphorylated Mer as determined by band densitometry using image analysis software.

MERTK = target: T3, MERTK (Homo sapiens, UniProt Q12866); assay: Kinase assay at Km ATP (Eurofins Discovery), Mer; type: biochemical; conditions: Table 2; Km ATP; read-out: IC50 (nM) MER
T3 sequence (Q12866 21-999): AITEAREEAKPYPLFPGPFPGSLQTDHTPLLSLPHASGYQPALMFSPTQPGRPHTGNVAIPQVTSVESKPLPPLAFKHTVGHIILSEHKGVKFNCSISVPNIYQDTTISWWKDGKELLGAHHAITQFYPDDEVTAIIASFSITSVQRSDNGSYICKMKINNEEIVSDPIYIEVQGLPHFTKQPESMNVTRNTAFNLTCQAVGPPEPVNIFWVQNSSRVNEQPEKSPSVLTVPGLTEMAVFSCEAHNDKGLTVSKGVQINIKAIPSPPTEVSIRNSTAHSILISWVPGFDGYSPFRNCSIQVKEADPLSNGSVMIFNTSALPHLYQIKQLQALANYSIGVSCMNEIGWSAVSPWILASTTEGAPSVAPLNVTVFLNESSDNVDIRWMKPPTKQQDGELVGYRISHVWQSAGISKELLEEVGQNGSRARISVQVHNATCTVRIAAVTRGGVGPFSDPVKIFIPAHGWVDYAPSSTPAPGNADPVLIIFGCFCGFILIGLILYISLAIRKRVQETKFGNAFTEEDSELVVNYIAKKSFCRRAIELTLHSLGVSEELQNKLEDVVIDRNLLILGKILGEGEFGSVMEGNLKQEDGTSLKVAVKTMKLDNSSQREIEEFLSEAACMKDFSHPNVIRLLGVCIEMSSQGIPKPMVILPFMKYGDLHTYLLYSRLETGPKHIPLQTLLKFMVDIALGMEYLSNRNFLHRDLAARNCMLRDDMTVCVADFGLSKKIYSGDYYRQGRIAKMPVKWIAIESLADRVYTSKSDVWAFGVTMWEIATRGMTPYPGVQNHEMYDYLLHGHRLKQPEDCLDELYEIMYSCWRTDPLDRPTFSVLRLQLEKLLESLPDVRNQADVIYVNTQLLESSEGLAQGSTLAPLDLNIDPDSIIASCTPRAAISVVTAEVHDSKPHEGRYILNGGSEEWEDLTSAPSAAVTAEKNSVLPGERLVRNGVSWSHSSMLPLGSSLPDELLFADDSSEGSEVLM
Protocol: as §1

TYRO3 [3] = target: T1, TYRO3; assay: Kinase assay at Km ATP (Eurofins Discovery), Tyro3; type: biochemical
Protocol: as §1

IC50 (AXL) [nM] | IC50 (MERTK) [nM] | inhibition at 1 µM (TYRO3 [3]) [%] | SMILES | IC50 (Mer) [nM] | IC50 (TYRO3 [1]) [nM] | Inhibitory effect on Mer phosphorylation [2]
 |  |  | CCOc1ccn(-c2ccc(F)cc2)c(=O)c1C(=O)Nc1ccc(Oc2ccnc(N)c2Cl)c(F)c1 [BMS-777607] | 14 | 4 | 
16 | 2 | 40 | COc1ccc(-n2ccc3cnc(Nc4cc(OC)cc(N5CCC(N6CCCC6)CC5)c4)nc32)cc1 [Compound 27, N-(3-Methoxy-5–(4-(pyrrolidin-1-yl)piperidin-1-yl)phenyl)-7–(4-methoxyphenyl)-7H-pyrrolo[2,3-d]pyrimidin-2-amine] |  |  | better effect on blocking phosphorylation than UNC2025; also recorded: considerable inhibition for Mer phosphorylation in cells
212 | 36 | 39 | COc1ccc(-n2ccc3cnc(Nc4cc(OC)cc(N5CCN(C6COC6)CC5)c4)nc32)cc1 [Compound 30, N-(3-Methoxy-5–(4-(oxetan-3-yl)piperazin-1-yl)phenyl)-7–(4-methoxyphenyl)-7H-pyrrolo[2,3-d]pyrimidin-2-amine] |  |  | 
18 | 4 | 92 | COc1ccc(-n2ccc3cnc(Nc4cc(CN5CCN(C)CC5)cc(OC)c4)nc32)cc1 [Compound 26, N-(3-Methoxy-5-((4-methylpiperazin-1-yl)methyl)phenyl)-7–(4-methoxyphenyl)-7H-pyrrolo[2,3-d]pyrimidin-2-amine] |  |  | 
